Reference: patent publication US6555709B1, “Aromatic amides, their preparation process and their use as pesticides” (Hoechst Schering AgrEvo S.A., priority 1997, dated 2003)

Key:
Assay type in all cases: in vivo
Heliothis Virescens = assay: Study on Heliothis virescens, treated artificial medium; conditions: starting from a dose of 300 ppm; neonate larva on treated artificial medium; checked after seven days; 25° C.
Method: C) Study on Heliothis Virescens The product was dissolved at the desired concentration in an acetone-water mixture (50-50). 50 μl of solution is deposited on the surface of small well containing approximately 2 grams of plant based artificial medium. One neonate larva of Heliothis virescens was then introduced into each well, which was sealed with a sheet of cellophane. The tests were kept at a temperature of 25° C., with a photoperiod of twelve hours., The mortality of the larvae was checked after seven days.

Spodoptera Littoralis = assay: Study on Spodoptera littoralis, treated haricot leaves; conditions: starting from a dose of 300 ppm; larvae on dipped haricot leaves; checked after seven days; 25° C.
Method: B) Study on Spodoptera Littoralis The product was dissolved at the desired concentration in an acetone-water mixture (50-50). Haricot leaves (Phaseolus vulgaris, var. […]) were immersed for five seconds in the solution, then left to dry in a Petri dish for one hour. Ten larvae of Spodoptera littoralis were then added to each dish. These are were at a temperature of 25° C., with a photoperiod of twelve hours. After seven days, the mortality of the larvae was checked and the foliar surface consumed is evaluated.

[1] = test system: Diabrotica undecimpunctata; assay: Study of the activity on Diabrotica, treated filter paper; conditions: starting from a dose of 300 ppm; final stage larvae on treated filter paper; checked 24 hours after treatment
Method: D) Study of the Activity on Diabrotica The test insects were final stage larvae of Diabrotica undecimpunctata. A 9 cm disc of filter paper, placed at the bottom of Petri dish, was treated using 1 cm^3 of an acetone solution. After drying 15 larvae per dose were deposited and the mortality check was carried out 24 hours after treatment.

Phaedon Cochleariae = assay: Study on Phaedon cochleariae, treated Chinese cabbage foliar disks; conditions: dose of 300 ppm; adults on dipped Chinese cabbage disks; checked after seven days; 25° C.
Method: A) Study on Phaedon Cochleariae The product was dissolved at the desired concentration in an acetone-water mixture (50-50). Foliar disks of Chinese cabbage (Brassica pekinensis) were immersed for five seconds in the solution, then left to dry for one hour. Ten adults (a mixture of males and females) were added into a Petri dish containing a foliar disk. These were kept at a temperature of 25° C., with a photoperiod of twelve hours. After seven days, the mortality of the insects was checked and the foliar surface consumed is evaluated.

SMILES | activity (mortality of the larvae) (Heliothis Virescens) | activity (mortality of the larvae and foliar surface consumed) (Spodoptera Littoralis) | activity (mortality) [1] | activity (mortality of the insects and foliar surface consumed) (Phaedon Cochleariae)
Cc1ccccc1NC(=O)c1ccc(CC2=Cc3ccc(Cl)c(Cl)c3CC2)cc1 [Product A] | very good activity | very good activity | very good activity | very useful activity
Cc1ccccc1NC(=O)c1ccc(Cc2ccc3cc(Cl)ccc3c2)cc1 [Product B] | very good activity | very good activity |  | 
Cc1ccccc1NC(=O)c1ccc(Cc2ccc3c(Br)cccc3c2)cc1 [Product C] | very good activity | very good activity |  | 
Cc1ccccc1NC(=O)c1ccc(Cc2ccc3cc(Br)ccc3c2)cc1 [Product D] | very good activity | very good activity |  | 
Cc1ccccc1NC(=O)c1ccc(CC2=Cc3ccc(Br)cc3CC2)cc1 [Product E] | very good activity | very good activity |  | 
Cc1ccccc1NC(=O)c1ccc(CC2CCc3cc(I)ccc3C2)cc1 (stereo not shown) [Product F] | very good activity | very good activity |  | 
Cc1ccccc1NC(=O)c1ccc(CC2=Cc3ccc(I)cc3CC2)cc1 [Product G] | very good activity | very good activity |  | 
Cc1ccccc1NC(=O)c1ccc(CC2=Cc3cc(Br)c(Br)cc3CC2)cc1 [Product H] | very good activity | very good activity |  | 
Cc1ccccc1NC(=O)c1ccc(Cc2ccc3c(c2)CC(Br)C(Br)C3)cc1 (stereo not shown) [Product I] | very good activity | very good activity |  | 
Cc1ccccc1NC(=O)c1ccc(CC2CCc3c(ccc(Cl)c3Cl)C2F)cc1 (stereo not shown) [Product J] | very good activity | very good activity |  | 
O=C(Nc1ccccc1)c1ccc(Cc2ccc3cc(Cl)c(Cl)cc3c2)cc1 [Product K] | very good activity | very good activity |  | 
CC(C)C(C)NC(=O)c1ccc(Cc2ccc3cc(Cl)ccc3c2)cc1 (stereo not shown) [Product L] | very good activity |  | very good activity | 
C=C(NC(C)C(C)C)c1ccc(Cc2ccc3cc(Cl)c(Cl)cc3c2)cc1 (stereo not shown) [Product M] | very good activity |  | very good activity | 
